# Source: patent US20060088583A1, “Artificial oxygen carrier containing preventive agents of metHb formation” (Oxygenix Co., Ltd., priority 2004, published 2006)
# Tests used:
# [1] = biological target: T1, hemoglobin vesicle (methemoglobin formation) (Homo sapiens, UniProt P68871+P69905); assay: Autoxidation of hemoglobin vesicle in the atmospheric air (37° C.), rate of methemoglobin from absorbance ratio 405/430 nm; assay type: biochemical; conditions: for Time required for 50% metHb formation: control 34.0; for Initial rate of metHb formation: control 1.3; for effect to inhibit methemoglobin formation (FIG. 1): encapsulated in hemoglobin vesicle, same manner as Example 1
# T1 construct: obtained by purification of human red cells derived from the donated blood; from tissue; host or cells: human red cells from donated blood
# T1 sequence (P69905 2-142 limits assumed): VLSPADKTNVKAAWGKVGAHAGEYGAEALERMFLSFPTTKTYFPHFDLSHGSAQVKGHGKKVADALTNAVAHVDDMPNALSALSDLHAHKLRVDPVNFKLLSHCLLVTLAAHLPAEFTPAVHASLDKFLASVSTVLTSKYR
# T1 sequence (P68871 2-147 limits assumed): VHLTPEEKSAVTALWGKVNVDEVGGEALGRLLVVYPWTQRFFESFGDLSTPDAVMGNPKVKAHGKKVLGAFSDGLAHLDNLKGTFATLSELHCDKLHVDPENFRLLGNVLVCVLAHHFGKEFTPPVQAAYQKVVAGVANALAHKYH
# Protocol: Otherwise, such components were not added to the above hemoglobin solution. Thereafter, using Remolino™ (manufactured by Millipore Japan), each of the obtained mixtures was filtrated through an FM microfilter with a pore size of 0.22 μm (manufactured by Fuji Photo Film Co., Ltd.), so as to obtain a processed hemoglobin solution. Mixed lipid powders (a mixture consisting of phosphatidylcholine, cholesterol, and DPEA; manufactured by Nippon Fine Chemical) were added, little by little, to the hemoglobin solution, resulting in the concentration of lipid of 4.5 wt %. The mixture was then stirred at 4° C. for 12 hours, so as to obtain a multilayer vesicle, in which hemoglobin had been encapsulated. The particle diameter and the number of coating layers were regulated by the extrusion method using Remolino. The FM microfilters were used in the order of pore sizes of 3, 0.8, 0.65, 0.45, 0.3, and 0.22 μm. The obtained hemoglobin vesicle dispersion was diluted with a saline solution. The diluted solution was subjected to ultracentrifugation (50,000 g, 40 minutes), and the supernatant hemoglobin solution was then eliminated by aspiration. Thereafter, a polyoxyethylene-binding lipid [N-(monomethoxy polyethylene glycol-carbamyl)distearoyl phosphatidyl ethanolamine; the molecular weight of the polyethylene glycol chain: 5,300] dispersed in a saline solution was added thereto, at an amount corresponding to 0.3 mol % of the lipid on the outer surface of the vesicle. The mixture was stirred at 25° C. for 2 hours, so as to modify the surface of the hemoglobin vesicle with polyethylene glycol. The concentration of hemoglobin was set at 10 g/dL, and the mixed solution was then filtrated through a 0.45-μm filter (Dismic-25; […]), so as to obtain a polyethylene glycol-modified hemoglobin vesicle.
# Each sample was collected over time. Thereafter, the rate of methemoglobin was calculated from the ratio of the absorbance of the hemoglobin vesicle solution at 405 nm to that of at 430 nm.
# A hemoglobin vesicle dispersion containing each of a tyrosine derivative, various types of antioxidants, and various types of phenol derivatives, at certain concentrations, was produced. Thereafter, the rate of methemoglobin formation was measured in the same manner as in Example 1.
# Thereafter, the rate of 50% methemoglobin formation was measured in the same manner as in Example 1.
# Thereafter, the time required for 50% methemoglobin formation was measured in the same manner as in Example 1.
# [2] = Maximum dissolvable concentration of L-tyrosine; assay type: physicochemical
# [3] = biological target: hemoglobin solution in an oxy state (methemoglobin formation) (Homo sapiens, UniProt P68871+P69905); assay: Repeated addition of hydrogen peroxide to oxyhemoglobin solution, cyanomethemoglobin method; assay type: biochemical; conditions: 60 minutes; 310 μM hydrogen peroxide every 10 minutes, 37° C., air; 5 g/dL oxyhemoglobin; 0.5 wt % methemoglobin and/or 1 mM L-tyrosine
# Sequence of hemoglobin solution in an oxy state (methemoglobin formation) (P69905 2-142 limits assumed): as the sequence (P69905 2-142 limits assumed) above
# Sequence of hemoglobin solution in an oxy state (methemoglobin formation) (P68871 2-147 limits assumed): as the sequence (P68871 2-147 limits assumed) above
# Protocol: Thereafter, 310 μM hydrogen peroxide (the same concentration as that of heme in methemoglobin) was added to the above solution, every 10 minutes, for 60 minutes in the atmospheric air at 37° C., while stirring. 300 μl of a sample was collected immediately before addition of each hydrogen peroxide, and 20 μl of catalase (5,000 units) was promptly added to each sample, so as to eliminate the hydrogen peroxide. Thereafter, the rate of methemoglobin was calculated by the cyanomethemoglobin method.
# hemoglobin [4] = biological target: T2, hemoglobin (Homo sapiens, UniProt P68871+P69905); assay: Isothermal titration microcalorimetry of L-tyrosine with hemoglobin; assay type: binding
# T2 sequence (P69905 2-142 limits assumed): as the sequence (P69905 2-142 limits assumed) above
# T2 sequence (P68871 2-147 limits assumed): as the sequence (P68871 2-147 limits assumed) above
# hemoglobin [5] = biological target: T2, hemoglobin; assay: Oxygen dissociation curve of hemoglobin mixed with L-tyrosine; assay type: biochemical
# [6] = biological target: T1, hemoglobin vesicle (methemoglobin formation); assay: Autoxidation of hemoglobin vesicle in the atmospheric air (4° C.), chilled storage; assay type: biochemical; conditions: [L-tyrosine]=1 mM
# Protocol: As a result, a slight amount of dityrosine was confirmed. Thereafter, this experiment was performed on a mixture obtained by adding hydrogen peroxide to a methemoglobin solution containing L-tyrosine. As a result, a large amount of dityrosine was confirmed. This is because of the peroxidase activity of methemoglobin. Thereafter, the change in methemoglobin concentration was observed during chilled storage (4° C.).
# Each sample was collected over time. Thereafter, the rate of methemoglobin was calculated from the absorbance ratio. […] 1 month later, the rate of methemoglobin were 4.4% and 9.3%, respectively. 3 months later, they were 10.2% and 24.3%, respectively.
Compound,"Time required for 50% metHb formation ([1]; Table 1, concentration 0.1 mM) [h]","Time required for 50% metHb formation ([1]; Table 1, concentration 1 mM) [h]","Time required for 50% metHb formation ([1]; Table 1, concentration 3 mM) [h]",Initial rate of metHb formation ([1]; concentration 0.1 mM) [% hr],Initial rate of metHb formation ([1]; concentration 1 mM) [% hr],Initial rate of metHb formation ([1]; concentration 3 mM) [% hr],also measured
"3,4-dihydroxyphenol-L-alanine",30.8,14.4,8.2,1.4,3.4,5.3,–
"O=C(O)CCc1ccc(O)cc1 [3-(p-hydroxyphenyl)pronionic acid, 3-(p-hydroxy-phenyl)pronionic acid]",–,32.2,34.2,–,1.0,1.2,"Time required for 50% metHb formation ([1]; Table 1, concentration not given): 34.7 h; Initial rate of metHb formation ([1]; concentration not given): 0.9 % hr"
O=c1cc(-c2ccc(O)cc2)oc2cc(O)cc(O)c12 [Apigenin],34.8,35.6,–,1.6,1.4,–,–
N[C@H](Cc1ccc(O)cc1)C(=O)O [D-tyrosine],–,–,–,–,–,–,effect to inhibit methemoglobin formation (FIG. 1) [1]: does not have such an effect of inhibiting methemoglobin formation
O=C(O[C@@H]1Cc2c(O)cc(O)cc2O[C@@H]1c1cc(O)c(O)c(O)c1)c1cc(O)c(O)c(O)c1 [Epigallocatechin gallate],–,12.4,13.0,–,3.4,3.2,"Time required for 50% metHb formation ([1]; Table 1, concentration 2 mM): 13.6 h; Initial rate of metHb formation ([1]; concentration 2 mM): 3.2 % hr"
O=c1c(O)c(-c2ccc(O)cc2)oc2cc(O)cc(O)c12 [Kaempferol],–,25.0,–,–,3.1,–,–
N[C@@H](Cc1ccc(O)cc1)C(=O)O [L-tyrosine],–,52.0,–,–,0.9,–,"Time required for 50% metHb formation ([1]; Table 1, concentration 0.25 mM): 42.0 h; Time required for 50% metHb formation ([1]; Table 1, concentration 0.5 mM): 48.0 h; Time required for 50% metHb formation ([1]; Table 2, concentration 0.25 mM): 42.0 h; Initial rate of metHb formation ([1]; concentration 0.25 mM): 1.1 % hr; Initial rate of metHb formation ([1]; concentration 0.5 mM): 1.0 % hr; effect to inhibit methemoglobin formation (FIG. 1) [1]: inhibits methemoglobin formation; maximum concentration that can be dissolved [2]: approximately 20 mM; rate of methemoglobin [3]: approximately 80%; heat of binding with hemoglobin (hemoglobin [4]): almost no heat of binding was observed; change in the degree of oxygen affinity (hemoglobin [5]): no change in the degree of oxygen affinity was observed; influence upon the allosteric effect (hemoglobin [5]): no particular influence upon the allosteric effect was found; rate of methemoglobin ([6]; 4° C., 1 month later, no L-tyrosine: 9.3%): 4.4%; rate of methemoglobin ([6]; 4° C., 3 months later, no L-tyrosine: 24.3%): 10.2%; rate of methemoglobin ([6]; when prepared, no L-tyrosine: 3.0%): 3.0%"
Oc1ccccc1 [Phenol],35.6,33.2,–,1.1,1.3,–,–
O=C(O)Cc1ccc(O)cc1 [p-hydroxyphenyl acetic acid],30.6,30.2,28.3,1.5,1.7,1.8,–
Catalase,–,–,–,–,–,–,"Time required for 50% metHb formation ([1]; Table 2, concentration 50000 unit/mL): 45.0 h"
L-Tyr-L-Glu,–,–,–,–,–,–,"Time required for 50% metHb formation ([1]; Table 2, concentration 0.1 mM): 33.0 h; Time required for 50% metHb formation ([1]; Table 2, concentration 0.25 mM): 33.0 h"
L-Tyr-L-Tyr,–,–,–,–,–,–,"Time required for 50% metHb formation ([1]; Table 2, concentration 0.1 mM): 32.0 h; Time required for 50% metHb formation ([1]; Table 2, concentration 0.25 mM): 32.0 h"
